Read-outs that look alike come from different tables or passages of the source.
Legend:
[1] = system: ABCG2; assay: Induction assay in LS180 cells, ABCG2 mRNA (real-time RT-PCR); type: cell-based, human; conditions: LS180, 4 days; hydroxychloroquine 1, 2, 10, 20 µM; rifampicin 20 µM; omeprazole 150 µM
Procedure: (§1) For induction experiments, the human colon adenocarcinoma cell line LS180 (available at ATCC, Manassas, VA, USA) was used. This cell line is an established model for investigating gene inductions mediated by PXR or AhR [25, 28]. Cells were cultured under standard cell culture conditions in DMEM supplemented with 10% FCS, 100 U/mL penicillin, 100 µg/mL streptomycin sulphate, 0.1 mM non-essential amino acids, and 2 mM glutamine.
(§2) All media were adjusted to the DMSO content of the solution with the highest DMSO content in the respective experiment (0.1%). The experiment was conducted in quintuplicate. RNA was extracted immediately after harvesting the cells and stored at −80 °C until processing.
(§3) RNA was isolated using the GenElute™ Mammalian Total RNA Miniprep Kit, and cDNA was synthesized with the RevertAid™ H Minus First Strand cDNA Synthesis Kit according to the manufacturer’s instructions. mRNA expression was quantified by real-time RT-PCR with the LightCycler® 480 (Roche Applied Science, Mannheim, Germany) as described previously. […] Data were evaluated via calibrator-normalised relative quantification with efficiency correction using the LightCycler® 480 software version 1.5.1.62 (Roche Applied Science, Mannheim, Germany). Results were expressed as the target/reference ratio divided by the target/reference ratio of the calibrator. The results are therefore corrected for sample inhomogeneities and variance caused by detection. All samples were amplified in duplicate and the mean of the technical duplicate was used for further calculation.

[2] = molecular target: T1, OATP1B1 (Homo sapiens, UniProt Q9Y6L6); assay: Flow cytometric OATP1B1 inhibition assay (8-FcA uptake, HEK-OATP1B1); type: cell-based
T1 construct: expressed in transfected cells; host or cells: HEK293 (HEK-OATP1B1)
Procedure: (§4) As cell models for human OATP1B1 and OATP1B3, HEK293, a human embryonic kidney cell line, stably transfected with OATP1B1 (HEK-OATP1B1), OATP1B3 (HEK-OATP1B3), or the empty control vector (HEK293-VC G418) were used. Cells were cultured under standard cell culture conditions with DMEM supplemented with 10% FCS, 2 mM glutamine, 100 U/mL penicillin, 100 µg/mL streptomycin sulphate, and 800 µg/mL G418. Inhibition of the OATPs was quantified by flow cytometry assessing the uptake of 8-FcA into HEK293 cells over-expressing the respective transporter after 10 min incubation and normalised to the control cell line as described previously. Intracellular fluorescence was quantified in a MACSQuant 10 Analyzer (Milteny, Bergisch-Gladbach, Germany) with the 488 nm laser for excitation and the 525 nm bandfilter for emission (FITC channel). Excluding debris, living cells were gated in the forward/sideward scatter by using the unstained sample. For each concentration (0.1–100 µM), 30,000 cells were measured and each experiment was performed in triplicate. Rifampicin (20 µM), a well-known inhibitor of OATP1B1 and OATP1B3, was used as a positive control.

[3] = system: ABCB1; assay: Induction assay in LS180 cells, ABCB1 mRNA (real-time RT-PCR); type: cell-based, human; conditions: LS180, 4 days; hydroxychloroquine 1, 2, 10, 20 µM; rifampicin 20 µM
Procedure: as §1, §2
as §3, with “The results are therefore corrected for sample inhomogeneities and variance caused by detection. All samples were amplified in duplicate and the mean of the technical duplicate was used for further calculation.” left out

[4] = molecular target: T2, OATP1B3 (Homo sapiens, UniProt Q9NPD5); assay: Flow cytometric OATP1B3 inhibition assay (8-FcA uptake, HEK-OATP1B3); type: cell-based
T2 construct: expressed in transfected cells; host or cells: HEK293 (HEK-OATP1B3)
Procedure: as §4

[5] = system: CYP1A2; assay: Induction assay in LS180 cells, CYP1A2 mRNA (real-time RT-PCR); conditions: LS180, 4 days; hydroxychloroquine 1, 2, 10, 20 µM; omeprazole 150 µM
Procedure: as §1, §2
as §3, with “The results are therefore corrected for sample inhomogeneities and variance caused by detection. All samples were amplified in duplicate and the mean of the technical duplicate was used for further calculation.” left out

[6] = system: CYP1A1; assay: Induction assay in LS180 cells, CYP1A1 mRNA (real-time RT-PCR); type: cell-based, human; conditions: LS180, 4 days; hydroxychloroquine 1, 2, 10, 20 µM; omeprazole 150 µM
Procedure: as §1, §2
as §3, with “The results are therefore corrected for sample inhomogeneities and variance caused by detection. All samples were amplified in duplicate and the mean of the technical duplicate was used for further calculation.” left out

[7] = molecular target: T3, OATP2B1 (Homo sapiens, UniProt O94956); assay: Flow cytometric OATP2B1 inhibition assay (DBF uptake, HEK293 with tetracycline-induced OATP2B1); type: cell-based
T3 construct: expressed in transfected cells; host or cells: HEK293, tetracycline-induced OATP2B1 expression
Procedure: As a cell model for human OATP2B1, HEK293 cells over-expressing OATP2B1 in the presence of tetracycline were used. Cells were cultured under standard cell culture conditions with DMEM/Ham’s F12 medium supplemented with 10% FCS, 4 mM glutamine, 100 U/mL penicillin, and 100 µg/mL streptomycin sulphate. To generate OATP2B1 over-expression, cells were treated 72 h before the assay with 1 µg/mL tetracycline. […] Excluding debris, living cells were gated in the forward/sideward scatter by using the unstained sample. […] Uptake in cells with tetracycline induction was normalised to the uptake in cells without induction. Naringin (1 mM) was used as a positive control.

[8] = system: LLC-PK1 cells; assay: Growth inhibition assay (crystal violet), parental LLC-PK1; type: cell-based; conditions: Sus scrofa
Procedure: (§5) Cell lines with overexpression of an efflux transporter are more resistant to the anti-proliferative effects of a compound if this compound is a substrate of the respective transporter and can be extruded from the cell. […] Reversal of drug resistance was tested by using the P-gp-specific inhibitor LY335979 (zosuquidar) or the BCRP-specific inhibitor FTC. The assay using crystal violet staining was conducted and analysed as described previously. Each experiment was performed at least in quadruplicate with n = 8 wells for each concentration (0.1–500 µM).

[9] = system: MDCKII-BCRP cells (over-expressing human BCRP); assay: Growth inhibition assay (crystal violet), BCRP over-expressing MDCKII-BCRP; type: cell-based; conditions: growth inhibition MDCKII-BCRP vs MDCKII with and without FTC
Procedure: as §5

[10] = system: BCRP (substrate test by growth inhibition); assay: as above; type: cell-based; conditions: dog, MDCKII-BCRP cells (MDCKII over-expressing human BCRP)
Procedure: as §5

[11] = system: OATP1B3; conditions: at 10 µM; cited from earlier work
[12] = system: organic cation/carnitine transporters (OCTNs); conditions: cited from earlier work
[13] = system: OATP1A2; conditions: uptake of all-trans-retinol in vitro; cited from earlier work
[14] = system: CYP3A4
Procedure: as §1, §2
as §3, with “The results are therefore corrected for sample inhomogeneities and variance caused by detection. All samples were amplified in duplicate and the mean of the technical duplicate was used for further calculation.” left out

[15] = system: LS180 cells; assay: Growth inhibition in LS180 cells (crystal violet); type: cell-based; conditions: Homo sapiens
Procedure: Proliferation was quantified by crystal violet staining and the assays were conducted as described previously. Each concentration was tested in octuplet and each experiment was performed in quadruplicate.

[16] = system: P-gp; parameters: method as in PMID 7113754; conditions: two case reports; cited from earlier work
[17] = system: all cell lines used; assay: Cytotoxicity Detection Kit (LDH release); type: cell-based; conditions: up to 100 µM
Text: The toxic effects of tested compounds can negatively influence transporter inhibition assays.

[18] = system: P-gp (P388/dx cells); assay: P-gp inhibition, calcein-AM uptake assay in P388/dx vs P388 cells; type: cell-based, murine; conditions: not in parental P388, 1 µM calcein-AM, IC50 could not be calculated
Procedure: (§6) P-gp inhibition was tested with a calcein assay as published previously using two different cell systems: the L-MDR1 cell line that over-expresses human P-gp and the corresponding parental cell line LLC-PK1 [19] and the P-gp over-expressing murine monocytic cell line P388/dx and its parental counterpart cell line P388 as a control. LLC-PK1 and L-MDR1 cells were cultured under standard cell culture conditions with medium M199 supplemented with 10% FCS, 2 mM glutamine, 100 U/mL penicillin, and 100 µg/mL streptomycin sulphate. […] One day before using the cells for the calcein assay, both cell lines were fed with vincristine-free culture medium. […] One day before the inhibition assay, both P388 cell lines were set to the doxorubicin-free culture medium.
(§7) In brief, the assay was performed in 96-well plates with a final calcein-AM concentration of 0.5 µM for the LLC cell system and 1 µM for the P388 cell system. Cells were washed with pre-warmed HBSS supplemented with 10 mM HEPES (HHBSS) and pre-incubated with this buffer for 30 min and subsequently with the test compound for 10 min (LLC cell system) or 15 min (P388 cell system). After pre-incubation, calcein-AM was added and the cells were incubated for 60 min (LLC system) or 30 min (P388 cell system) at 37 °C on a rotary shaker (Noctua, Vienna, Austria). […]

[19] = molecular target: T4, human P-gp (Homo sapiens, UniProt P08183); assay: P-gp inhibition, calcein-AM uptake assay in L-MDR1 vs LLC-PK1 cells; type: cell-based; conditions: L-MDR1 cells and parental LLC-PK1; 0.01–100 µM; 0.5 µM calcein-AM
T4 construct: expressed in transfected cells; host or cells: L-MDR1 (derived from porcine LLC-PK1)
Procedure: as §6, §7

[20] = system: organic cation transporters (OCTs); conditions: cited from earlier work
[21] = system: L-MDR1 cells (over-expression of human P-gp); assay: Growth inhibition assay (crystal violet), P-gp over-expressing L-MDR1; type: cell-based; conditions: growth inhibition L-MDR1 vs LLC-PK1 with and without LY335979
Procedure: as §5

[22] = system: P-gp (substrate test by growth inhibition); assay: as above; type: cell-based; conditions: pig, L-MDR1 cells (LLC-PK1 over-expressing human P-gp)
Procedure: as §5

[23] = system: MDCKII cells; assay: Growth inhibition assay (crystal violet), parental MDCKII; type: cell-based; conditions: Canis lupus familiaris, MDCK-II
Procedure: as §5

[24] = cited from earlier work
[25] = system: OATP2B1; conditions: at 10 µM; cited from earlier work
[26] = system: organic anion transporters (OATs); conditions: cited from earlier work
[27] = 0.1–100 µM, 8-FcA uptake, 10 min

T3 sequence (O94956 whole entry): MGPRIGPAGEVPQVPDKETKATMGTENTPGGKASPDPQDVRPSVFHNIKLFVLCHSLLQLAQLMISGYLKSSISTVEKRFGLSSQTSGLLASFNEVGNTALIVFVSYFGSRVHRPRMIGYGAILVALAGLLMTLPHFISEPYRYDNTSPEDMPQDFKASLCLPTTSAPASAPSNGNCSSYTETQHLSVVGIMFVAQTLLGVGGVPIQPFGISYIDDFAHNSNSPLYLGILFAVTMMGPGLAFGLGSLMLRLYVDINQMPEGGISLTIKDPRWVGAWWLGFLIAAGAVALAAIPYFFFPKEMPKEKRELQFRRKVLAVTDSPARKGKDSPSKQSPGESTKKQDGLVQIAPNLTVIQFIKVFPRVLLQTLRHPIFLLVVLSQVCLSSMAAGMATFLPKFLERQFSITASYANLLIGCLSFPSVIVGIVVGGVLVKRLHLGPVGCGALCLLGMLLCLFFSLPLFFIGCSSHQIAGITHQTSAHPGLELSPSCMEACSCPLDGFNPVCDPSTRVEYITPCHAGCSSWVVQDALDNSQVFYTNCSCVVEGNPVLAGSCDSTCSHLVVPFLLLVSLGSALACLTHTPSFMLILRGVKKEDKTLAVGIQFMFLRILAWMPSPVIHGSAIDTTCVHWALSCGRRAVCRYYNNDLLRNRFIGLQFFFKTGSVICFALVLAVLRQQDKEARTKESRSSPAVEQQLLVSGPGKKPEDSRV
T1 sequence (Q9Y6L6 whole entry): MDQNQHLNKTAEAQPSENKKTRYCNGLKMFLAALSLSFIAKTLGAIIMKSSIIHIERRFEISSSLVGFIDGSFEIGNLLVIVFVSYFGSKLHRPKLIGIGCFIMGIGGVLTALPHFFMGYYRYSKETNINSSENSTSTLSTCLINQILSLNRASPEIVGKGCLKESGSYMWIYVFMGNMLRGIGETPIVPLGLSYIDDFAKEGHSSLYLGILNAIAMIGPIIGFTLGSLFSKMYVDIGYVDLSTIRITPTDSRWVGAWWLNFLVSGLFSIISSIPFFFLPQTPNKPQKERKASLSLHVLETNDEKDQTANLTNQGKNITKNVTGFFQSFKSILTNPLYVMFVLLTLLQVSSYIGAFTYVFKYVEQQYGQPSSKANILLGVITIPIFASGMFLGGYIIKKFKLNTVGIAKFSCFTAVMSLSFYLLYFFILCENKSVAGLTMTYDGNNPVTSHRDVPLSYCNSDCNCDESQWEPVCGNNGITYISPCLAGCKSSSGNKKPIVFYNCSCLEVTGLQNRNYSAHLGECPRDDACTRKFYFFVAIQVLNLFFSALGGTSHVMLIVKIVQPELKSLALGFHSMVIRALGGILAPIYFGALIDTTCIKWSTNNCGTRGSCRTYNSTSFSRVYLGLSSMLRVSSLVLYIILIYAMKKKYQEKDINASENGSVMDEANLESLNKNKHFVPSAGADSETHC
T2 sequence (Q9NPD5 whole entry): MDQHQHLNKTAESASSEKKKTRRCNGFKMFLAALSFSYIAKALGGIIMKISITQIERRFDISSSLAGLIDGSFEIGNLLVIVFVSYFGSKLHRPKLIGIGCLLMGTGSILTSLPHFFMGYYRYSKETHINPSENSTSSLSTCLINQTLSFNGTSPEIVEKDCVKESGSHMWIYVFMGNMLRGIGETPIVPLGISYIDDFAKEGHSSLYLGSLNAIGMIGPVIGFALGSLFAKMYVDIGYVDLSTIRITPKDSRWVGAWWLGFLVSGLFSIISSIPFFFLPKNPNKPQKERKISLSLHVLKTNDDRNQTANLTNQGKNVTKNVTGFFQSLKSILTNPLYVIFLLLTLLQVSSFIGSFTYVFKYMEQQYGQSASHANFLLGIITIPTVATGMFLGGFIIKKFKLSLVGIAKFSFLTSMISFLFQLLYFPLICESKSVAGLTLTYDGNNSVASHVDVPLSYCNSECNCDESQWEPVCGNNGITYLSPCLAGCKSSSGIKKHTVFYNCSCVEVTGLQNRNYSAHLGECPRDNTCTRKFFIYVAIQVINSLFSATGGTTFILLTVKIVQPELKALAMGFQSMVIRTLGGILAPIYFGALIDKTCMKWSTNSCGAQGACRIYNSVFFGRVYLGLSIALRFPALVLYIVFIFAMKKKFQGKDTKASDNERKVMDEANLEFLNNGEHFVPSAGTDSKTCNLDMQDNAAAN
T4 sequence (P08183 whole entry): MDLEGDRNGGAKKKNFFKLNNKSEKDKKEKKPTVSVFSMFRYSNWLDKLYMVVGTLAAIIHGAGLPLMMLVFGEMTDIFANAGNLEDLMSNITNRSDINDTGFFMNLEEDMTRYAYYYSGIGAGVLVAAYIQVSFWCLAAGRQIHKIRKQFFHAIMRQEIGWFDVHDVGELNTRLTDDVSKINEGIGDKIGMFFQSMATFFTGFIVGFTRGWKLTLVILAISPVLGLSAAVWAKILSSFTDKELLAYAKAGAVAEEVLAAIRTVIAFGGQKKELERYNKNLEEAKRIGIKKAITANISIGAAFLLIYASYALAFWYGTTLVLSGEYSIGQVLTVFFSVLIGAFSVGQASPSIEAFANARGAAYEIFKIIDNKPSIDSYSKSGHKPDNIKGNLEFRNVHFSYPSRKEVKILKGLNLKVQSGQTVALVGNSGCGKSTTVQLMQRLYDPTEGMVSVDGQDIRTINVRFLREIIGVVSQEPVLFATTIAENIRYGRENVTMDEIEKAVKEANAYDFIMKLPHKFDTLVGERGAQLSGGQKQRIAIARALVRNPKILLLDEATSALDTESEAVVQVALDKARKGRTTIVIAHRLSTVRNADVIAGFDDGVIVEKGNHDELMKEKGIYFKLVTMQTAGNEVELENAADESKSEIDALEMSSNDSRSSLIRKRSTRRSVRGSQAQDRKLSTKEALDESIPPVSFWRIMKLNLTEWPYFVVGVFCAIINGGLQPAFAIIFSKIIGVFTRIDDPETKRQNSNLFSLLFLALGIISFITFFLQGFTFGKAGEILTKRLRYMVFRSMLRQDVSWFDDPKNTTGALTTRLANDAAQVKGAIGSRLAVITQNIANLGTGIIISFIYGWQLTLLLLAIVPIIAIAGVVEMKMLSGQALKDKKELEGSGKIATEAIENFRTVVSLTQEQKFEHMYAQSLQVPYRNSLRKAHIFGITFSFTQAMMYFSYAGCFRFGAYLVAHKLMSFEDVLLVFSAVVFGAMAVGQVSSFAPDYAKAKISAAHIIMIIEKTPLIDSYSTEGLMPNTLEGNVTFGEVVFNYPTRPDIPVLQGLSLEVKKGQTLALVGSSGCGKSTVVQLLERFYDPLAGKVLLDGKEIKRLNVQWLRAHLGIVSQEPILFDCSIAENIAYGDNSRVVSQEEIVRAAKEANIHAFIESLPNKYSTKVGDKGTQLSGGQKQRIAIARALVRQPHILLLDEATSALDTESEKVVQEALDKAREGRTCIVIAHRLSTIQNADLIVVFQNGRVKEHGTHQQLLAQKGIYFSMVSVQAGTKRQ

SMILES: CO[C@H]1/C=C/O[C@@]2(C)Oc3c(C)c(O)c4c(O)c(c(/C=N/N5CCN(C)CC5)c(O)c4c3C2=O)NC(=O)/C(C)=C\C=C\[C@H](C)[C@H](O)[C@@H](C)[C@@H](O)[C@@H](C)[C@H](OC(C)=O)[C@@H]1C [rifampicin]
- ABCG2 mRNA expression [1]: slightly
- inhibition at 10 min, 20 µM ([2]; human, HEK293 cells stably transfected with OATP1B1 (HEK-OATP1B1), probe 8-FcA, 20 µM, positive control): 80%
- ABCB1 mRNA expression [3]: significantly up-regulated
- inhibition at 10 min, 20 µM ([4]; human, HEK293 cells stably transfected with OATP1B3 (HEK-OATP1B3), probe 8-FcA, 20 µM, positive control): 90%

SMILES: COc1ccc2[nH]c([S+]([O-])Cc3ncc(C)c(OC)c3C)nc2c1 (centres unmarked) [omeprazole]
- CYP1A2 mRNA expression [5]: significantly up-regulated
- CYP1A1 mRNA expression [6]: significantly up-regulated
- ABCG2 mRNA expression [1]: significantly up-regulated

SMILES: C[C@@H]1O[C@@H](O[C@H]2[C@H](Oc3cc(O)c4c(c3)O[C@H](c3ccc(O)cc3)CC4=O)O[C@H](CO)[C@@H](O)[C@@H]2O)[C@H](O)[C@H](O)[C@H]1O [naringin]
- inhibition at 10 min, 1 mM ([7]; human, probe DBF (1 µM), 1 mM, positive control): 70%

SMILES: CCN(CCO)CCCC(C)Nc1ccnc2cc(Cl)ccc12 (centres unmarked) [hydroxychloroquine]
- IC50 ([8]; LLC-PK1, LLC-PK1): 82 ± 10 µM
- IC50 ([8]; LLC-PK1, LLC-PK1 + LY335979 (P-gp inhibitor)): 93 ± 2 µM
- BCRP substrate characteristics [9]: not transported by BCRP
- IC50 [10]: 88 ± 9 µM
- IC50 ([10]; with FTC, concentration not given, MDCKII-BCRP + FTC): 92 ± 5 µM
- OATP1B3 inhibition [11]: about 20%
- inhibition of organic cation/carnitine transporters (OCTNs) [12]: no inhibition
- CYP1A2 mRNA expression [5]: no significant effect
- OATP1A2 inhibition [13]: competitive inhibitor
- CYP3A4 mRNA expression [14]: no significant effect
- CYP1A1 mRNA expression [6]: no significant effect
- IC20 [15]: 22.5 ± 7.3 µM
- effect on digoxin plasma concentrations during concurrent therapy [16]: increased plasma concentrations of digoxin
- toxic effects (LDH release) [17]: no toxic effects
- concentrations at which intracellular calcein fluorescence was increased (weak P-gp inhibition) [18]: higher than 10 µM
- ABCG2 mRNA expression [1]: no significant effect
- OATP1B1 inhibition [2, 27]: did not inhibit
- effect on intracellular calcein fluorescence (P-gp inhibition) [19]: did not affect intracellular calcein fluorescence
- inhibition of organic cation transporters (OCTs) [20]: no inhibition
- ABCB1 mRNA expression [3]: no significant effect
- P-gp substrate characteristics [21]: substrate of the efflux transporter P-gp
- IC50 [22]: 427 ± 16 µM
- IC50 ([22]; with LY335979 (zosuquidar), concentration not given, L-MDR1 + LY335979 (P-gp inhibitor)): 90 ± 1 µM
- IC50 [23]: 89 ± 12 µM
- blood concentrations at steady-state ([24]; 400 mg/day): up to 9 µM
- volume of distribution ([24]; in blood): 5522 L
- volume of distribution ([24]; in plasma): 44,257 L
- concentration within lysosomes at steady-state (postulated) ([24]; lysosomes): 80000 µM
- average intracellular concentration at steady-state (postulated) ([24]; tissue/cells): 1 mM
- OATP2B1 inhibition [25]: about 20%
- inhibition of organic anion transporters (OATs) [26]: weak inhibition
- OATP1B3 inhibition [4, 27]: did not inhibit
- OATP2B1 inhibition ([7]; 0.1–100 µM, 1 µM DBF uptake, 10 min): did not inhibit

Source: publication PMC7600351 (Pharmaceutics, 2020)
